Laboratory results as given in PMC7031696 (Cell chemical biology, 2019).
Like-named read-outs stand apart in the source and are kept apart here.

Legend:
[1] = test system: Plasmodium falciparum 3D7-A10 parasites; assay: Stage specificity assay (8-h exposure of synchronized stages, IC50^8h); assay type: cell-based; details: for IC50: Plasmodium falciparum
[2] = test system: asynchronous 3D7-A10 parasite cultures; assay: Standard 72-h exposure asexual blood stage susceptibility assay (IC50^72h); assay type: cell-based, Plasmodium falciparum; details: Plasmodium falciparum, 3D7, 72 h, read-out: Overall (72hr assay) Mean IC50 (IC50^72h)
[3] = test system: 3D7-MR4 trophozoite parasite-infected RBCs; assay: Metabolomic profiling (hydrophilic metabolite changes, UHPLC-MS); assay type: cell-based, Plasmodium falciparum
[4] = test system: 3D7-MR4 trophozoite parasite-infected RBCs; details: 10 × IC50^72h; ref Allman et al., 2016; cited from earlier work
[5] = test system: 3D7-A10 or Dd2-B2 parasites; details: 3 × IC50^72h drug concentrations; ref Phillips et al., 2015; cited from earlier work

Cc1cc(Nc2ccc(S(F)(F)(F)(F)F)cc2)n2nc(C(C)(F)F)nc2n1 [DSM265, reference compound]
Ratio lowest IC50 8hr/IC50 72hr ([1]; 3D7-A10): 2.0
overall activity profile (stages on which active) ([1]; 8-h exposures): activity against late trophozoites only
killing in stage specificity assay ([1]; 8-h exposures, survival curves): incomplete killing
IC50 ([1]; 3D7, read-out: Early rings Mean IC50, shift 2): 4820 nM
IC50 ([1]; 3D7, read-out: Early trophozoites Mean IC50, shift 1): 10.2 nM
IC50 ([1]; 3D7, read-out: Early trophozoites Mean IC50, shift 2): 1480 nM
IC50 ([1]; 3D7, read-out: Late rings Mean IC50, shift 2): 1490 nM
IC50 ([1]; 3D7, read-out: Late trophozoites Mean IC50, shift 1): 7.7 nM
IC50 ([1]; 3D7, read-out: Schizonts IC50, shift 2): > 25000 nM
IC50 ([1]; 3D7, read-out: Schizonts Mean IC50, shift 1): 19.2 nM
shape of survival curve ([1]; early trophozoite and schizont stages): biphasic survival curve
Stage of peak activity (Figure 6) ([1]; period when the parasite was most susceptible (lowest IC50^8h)): late trophozoite stages
Peak Activity (Table S1) ([1]; stage(s) with the lowest IC50^8h): Late Trophs
IC50 [2]: 3.8 nM
Log2(fold changes) 3-phosphoglycerate ([3]; metabolite 3-phosphoglycerate, log2 fold change): 0.0300
Log2(fold changes) 4-Pyridoxic acid ([3]; metabolite 4-Pyridoxic acid, log2 fold change): -1.9900
Log2(fold changes) 4-aminobutyrate ([3]; metabolite 4-aminobutyrate, log2 fold change): 0.1300
Log2(fold changes) 4-phosphopantetheine ([3]; metabolite 4-phosphopantetheine, log2 fold change): 0.0000
Log2(fold changes) 4-phosphopantothenate ([3]; metabolite 4-phosphopantothenate, log2 fold change): -0.1800
Log2(fold changes) 5-aminopentanoic acid ([3]; metabolite 5-aminopentanoic acid, log2 fold change): 0.0000
Log2(fold changes) 5-methyl-THF ([3]; metabolite 5-methyl-THF, log2 fold change): 0.0000
Log2(fold changes) 5-phosphoribosyl-1-pyrophosphate ([3]; metabolite 5-phosphoribosyl-1-pyrophosphate, log2 fold change): -0.0200
Log2(fold changes) 6-phospho-D-gluconate ([3]; metabolite 6-phospho-D-gluconate, log2 fold change): 0.2100
Log2(fold change) HVDD ([3]; metabolite HVDD): 0.0000
Log2(fold change) Hydroxyisocaproic acid ([3]; metabolite Hydroxyisocaproic acid): 0.0000
Log2(fold change) IDP ([3]; metabolite IDP): 0.0000
Log2(fold change) IMP ([3]; metabolite IMP): 0.1000
Log2(fold change) Inositol ([3]; metabolite Inositol): 0.0000
Log2(fold change) Isopentyl-PP ([3]; metabolite Isopentyl-PP): 0.0000
Log2(fold change) L-arginino-succinate ([3]; metabolite L-arginino-succinate): 0.0000
Log2(fold change) LD ([3]; metabolite LD): 0.0100
Log2(fold change) Myristoyl/tetradecanoyl-CoA ([3]; metabolite Myristoyl/tetradecanoyl-CoA): 0.0000
Log2(fold change) N-Acetyl-L-alanine ([3]; metabolite N-Acetyl-L-alanine): -0.3700
Log2(fold change) N-acetyl-L-ornithine ([3]; metabolite N-acetyl-L-ornithine): -0.2000
Log2(fold change) N-acetyl-glucosamine-1/6-phosphate ([3]; metabolite N-acetyl-glucosamine-1/6-phosphate): -0.7400
Log2(fold change) N-acetyl-glutamate ([3]; metabolite N-acetyl-glutamate): 0.0900
Log2(fold change) N-acetyl-glutamine ([3]; metabolite N-acetyl-glutamine): -0.1600
Log2(fold change) N-carbamoyl-L-aspartate ([3]; metabolite N-carbamoyl-L-aspartate): 4.8500
Log2(fold change) NAD+ ([3]; metabolite NAD+): 0.1500
Log2(fold change) NADH ([3]; metabolite NADH): 0.7500
Log2(fold change) NADP+ ([3]; metabolite NADP+): 0.0800
Log2(fold change) NADPH ([3]; metabolite NADPH): 0.6400
Log2(fold change) O-acetyl-L-serine ([3]; metabolite O-acetyl-L-serine): 0.0000
Log2(fold change) Octoluse 8/1P ([3]; metabolite Octoluse 8/1P): 0.2400
Log2(fold change) Octoluse Bisphosphate ([3]; metabolite Octoluse Bisphosphate): -0.2600
Log2(fold change) PD ([3]; metabolite PD): -0.0800
Log2(fold change) PE ([3]; metabolite PE): -0.3900
Log2(fold change) PEE ([3]; metabolite PEE): -0.4300
Log2(fold change) PEEK ([3]; metabolite PEEK): -0.3200
Log2(fold change) PVNF ([3]; metabolite PVNF): -0.8600
Log2(fold change) Pyroglutamic acid ([3]; metabolite Pyroglutamic acid): 0.0900
Log2(fold change) Pyrophosphate ([3]; metabolite Pyrophosphate): 0.2500
Log2(fold change) Ribose-5-phosphate ([3]; metabolite Ribose-5-phosphate): 0.0000
Log2(fold change) S-adenosyl-L-homocysteine ([3]; metabolite S-adenosyl-L-homocysteine): -1.4900
Log2(fold change) S-adenosyl-L-methioninamine ([3]; metabolite S-adenosyl-L-methioninamine): 0.0000
Log2(fold change) S-adenosyl-L-methionine ([3]; metabolite S-adenosyl-L-methionine): 0.0000
Log2(fold change) S-methyl-5'-thioadenosine ([3]; metabolite S-methyl-5'-thioadenosine): -0.0400
Log2(fold change) SD ([3]; metabolite SD): -0.2500
Log2(fold change) SDL ([3]; metabolite SDL): 0.0000
Log2(fold change) SID ([3]; metabolite SID): 0.0000
Log2(fold change) Sedoheptulose bisphosphate ([3]; metabolite Sedoheptulose bisphosphate): 0.0300
Log2(fold change) Thiamine pyrophosphate ([3]; metabolite Thiamine pyrophosphate): 0.0000
Log2(fold changes) UDP-D-glucose ([3]; metabolite UDP-D-glucose, log2 fold change): 0.0500
Log2(fold changes) UDP-D-glucuronate ([3]; metabolite UDP-D-glucuronate, log2 fold change): 0.0200
Log2(fold changes) UDP-N-acetyl-glucosamine ([3]; metabolite UDP-N-acetyl-glucosamine, log2 fold change): -0.1200
Log2(fold changes) UDP ([3]; metabolite UDP, log2 fold change): -1.5400
Log2(fold changes) UMP ([3]; metabolite UMP, log2 fold change): -0.9900
Log2(fold changes) UTP ([3]; metabolite UTP, log2 fold change): -1.4400
Log2(fold change) hydroxyphenylpyruvate ([3]; metabolite hydroxyphenylpyruvate): 0.0000
Log2(fold change) hydroxyproline/Aminolevulinate ([3]; metabolite hydroxyproline/Aminolevulinate): 0.0000
Log2(fold change) hypoxanthine ([3]; metabolite hypoxanthine): 0.3100
Log2(fold change) indole ([3]; metabolite indole): 0.1900
Log2(fold change) inosine ([3]; metabolite inosine): 0.2300
Log2(fold change) isoleucine ([3]; metabolite isoleucine): 0.0000
Log2(fold change) lactate ([3]; metabolite lactate): -0.1200
Log2(fold change) leucine ([3]; metabolite leucine): 0.0000
Log2(fold change) lysine ([3]; metabolite lysine): 0.0000
Log2(fold change) malate ([3]; metabolite malate): -0.2600
Log2(fold change) maleic acid ([3]; metabolite maleic acid): 0.0000
Log2(fold change) methionine ([3]; metabolite methionine): 0.0000
Log2(fold change) myo-inositol ([3]; metabolite myo-inositol): -0.8500
Log2(fold change) nicotinamide mononucleotide ([3]; metabolite nicotinamide mononucleotide): 0.0000
Log2(fold change) nicotinate ([3]; metabolite nicotinate): -0.0300
Log2(fold change) ornithine ([3]; metabolite ornithine): -0.1100
Log2(fold change) orotate ([3]; metabolite orotate): -0.2100
Log2(fold change) orotidine-5'-phosphate ([3]; metabolite orotidine-5'-phosphate): 0.0000
Log2(fold change) oxaloacetate ([3]; metabolite oxaloacetate): 0.0000
Log2(fold change) p-aminobenzoate ([3]; metabolite p-aminobenzoate): 0.0000
Log2(fold change) p-hydroxybenzoate ([3]; metabolite p-hydroxybenzoate): 0.2000
Log2(fold change) pantothenate ([3]; metabolite pantothenate): 0.0000
Log2(fold change) phenylalanine ([3]; metabolite phenylalanine): 0.0000
Log2(fold change) phenylpyruvate ([3]; metabolite phenylpyruvate): 1.0600
Log2(fold change) phosphoenolpyruvate ([3]; metabolite phosphoenolpyruvate): 0.0800
Log2(fold change) prephenate ([3]; metabolite prephenate): 0.0000
Log2(fold change) proline ([3]; metabolite proline): 0.0000
Log2(fold change) pyridoxine ([3]; metabolite pyridoxine): 0.0000
Log2(fold change) pyruvate ([3]; metabolite pyruvate): 0.0500
Log2(fold change) riboflavin ([3]; metabolite riboflavin): 0.0000
Log2(fold change) ribose ([3]; metabolite ribose): 0.0000
Log2(fold change) ribose-phosphate ([3]; metabolite ribose-phosphate): 0.2500
Log2(fold change) ribulose-5-phosphate ([3]; metabolite ribulose-5-phosphate): 0.0000
Log2(fold change) serine ([3]; metabolite serine): 0.0000
Log2(fold change) sn-glycerol-3-phosphate ([3]; metabolite sn-glycerol-3-phosphate): 0.1700
Log2(fold change) succinate/Methylmalonic acid ([3]; metabolite succinate/Methylmalonic acid): -0.0400
Log2(fold change) succinyl-CoA/methylmalonyl-CoA ([3]; metabolite succinyl-CoA/methylmalonyl-CoA): 0.0000
Log2(fold change) taurine ([3]; metabolite taurine): 0.0000
Log2(fold change) thiamine ([3]; metabolite thiamine): 0.0000
Log2(fold change) threonine/homoserine ([3]; metabolite threonine/homoserine): 0.0000
Log2(fold change) thymidine ([3]; metabolite thymidine): -0.5100
Log2(fold changes) thymine ([3]; metabolite thymine, log2 fold change): -0.0500
Log2(fold changes) trehalose-6-Phosphate ([3]; metabolite trehalose-6-Phosphate, log2 fold change): 0.0000
Log2(fold changes) tryptophan ([3]; metabolite tryptophan, log2 fold change): 0.0000
Log2(fold changes) tyrosine ([3]; metabolite tyrosine, log2 fold change): 0.0000
Log2(fold changes) uridine ([3]; metabolite uridine, log2 fold change): -0.1000
metabolic signature: increases in the pyrimidine precursors dihydroorotate and N-carbamoyl-L-aspartate (mETC disruption) [4]: observed
minimum inoculum for resistance [5]: 2 × 10^6 parasites
